According to the supplement of paper PMC8671470:

Columns and labels:
Assay in all cases: cell viability (% survival relative to DMSO control); higher = less cytotoxic
Settings in all cases: 72 h
[1] = tested on: myeloid leukemia patient primary cells Pat.10
Method in brief: (§1)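 Mononuclear cells from patients with AML or CML were thawed, purified on Ficoll and placed in RPMI 1640 with 10% FBS at 10,000 cells/well on 384-well plates. The plates came pre-printed with 70 compounds at five tenfold concentrations spanning 1–10,000 nM, in duplicate, and cells were exposed for 72 h. CellTiter-Glo gave viability, scaled between DMSO wells and wells with 10 μM proteasome inhibitor. Where reported, area under the curve was obtained from log-logistic fits with four parameters using the drc and PharmacoGx R packages.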

[2] = tested on: myeloid leukemia patient primary cells Pat.11
Method in brief: as §1

[3] = tested on: myeloid leukemia patient primary cells Pat.12
Method in brief: as §1

[4] = tested on: myeloid leukemia patient primary cells Pat.13
Method in brief: as §1

[5] = tested on: myeloid leukemia patient primary cells Pat.14
Method in brief: as §1

[6] = tested on: myeloid leukemia patient primary cells Pat.3
Method in brief: as §1

[7] = tested on: myeloid leukemia patient primary cells Pat.4
Method in brief: as §1

[8] = tested on: myeloid leukemia patient primary cells Pat.5
Method in brief: as §1

[9] = tested on: myeloid leukemia patient primary cells Pat.6
Method in brief: as §1

[10] = tested on: myeloid leukemia patient primary cells Pat.8
Method in brief: as §1

[11] = tested on: myeloid leukemia patient primary cells Pat.9
Method in brief: as §1

## CC(C)(C)c1ccc(S(=O)(=O)NCc2ccc(C(=O)Nc3cccnc3)cc2)cc1 [STF-31]
[1]; 1 nM
  cell viability: 56.6%
[1]; 10 nM
  cell viability: 35%
[1]; 100 nM
  cell viability: 64.9%
[1]; 1000 nM
  cell viability: < 0%
[1]; 10000 nM
  cell viability: 4.94%
[2]; 1 nM
  cell viability: 95.5%
[2]; 10 nM
  cell viability: 92.3%
[2]; 100 nM
  cell viability: 99.3%
[2]; 1000 nM
  cell viability: 2.57%
[2]; 10000 nM
  cell viability: 1.37%
[3]; 1 nM
  cell viability: 96.2%
[3]; 10 nM
  cell viability: 96.2%
[3]; 100 nM
  cell viability: 92.7%
[3]; 1000 nM
  cell viability: 7.74%
[3]; 10000 nM
  cell viability: 4.47%
[4]; 1 nM
  cell viability: 94.8%
[4]; 10 nM
  cell viability: 87.8%
[4]; 100 nM
  cell viability: 87.7%
[4]; 1000 nM
  cell viability: 8.95%
[4]; 10000 nM
  cell viability: 9.54%
[5]; 1 nM
  cell viability: 74.9%
[5]; 10 nM
  cell viability: 62.1%
[5]; 100 nM
  cell viability: 9.36%
[5]; 1000 nM
  cell viability: 1.38%
[5]; 10000 nM
  cell viability: < 0%
[6]; 1 nM
  cell viability: 90.6%
[6]; 10 nM
  cell viability: 45.5%
[6]; 100 nM
  cell viability: 6.65%
[6]; 1000 nM
  cell viability: 2.19%
[6]; 10000 nM
  cell viability: 1.78%
[7]; 1 nM
  cell viability: 84.9%
[7]; 10 nM
  cell viability: 83.8%
[7]; 100 nM
  cell viability: 18%
[7]; 1000 nM
  cell viability: 1.84%
[7]; 10000 nM
  cell viability: 1.54%
[8]; 1 nM
  cell viability: 78.8%
[8]; 10 nM
  cell viability: 6.66%
[8]; 100 nM
  cell viability: 0.912%
[8]; 1000 nM
  cell viability: 0.265%
[8]; 10000 nM
  cell viability: 2.27%
[9]; 1 nM
  cell viability: 98%
[9]; 10 nM
  cell viability: 85.7%
[9]; 100 nM
  cell viability: 71.1%
[9]; 1000 nM
  cell viability: 21.7%
[9]; 10000 nM
  cell viability: 28.8%
[10]; 1 nM
  cell viability: 97.5%
[10]; 10 nM
  cell viability: 87%
[10]; 100 nM
  cell viability: 63%
[10]; 1000 nM
  cell viability: 6.59%
[10]; 10000 nM
  cell viability: 9.06%
[11]; 1 nM
  cell viability: 72.4%
[11]; 10 nM
  cell viability: 28.7%
[11]; 100 nM
  cell viability: 7.17%
[11]; 1000 nM
  cell viability: < 0%
[11]; 10000 nM
  cell viability: 0.773%

## CO[C@H]1C[C@@H]2CC[C@@H](C)[C@@](O)(O2)C(=O)C(=O)N2CCCC[C@H]2C(=O)O[C@H]([C@H](C)C[C@@H]2CC[C@@H](OC(=O)C(C)(CO)CO)[C@H](OC)C2)CC(=O)[C@H](C)/C=C(\C)[C@@H](O)[C@@H](OC)C(=O)[C@H](C)C[C@H](C)/C=C/C=C/C=C/1C [Temsirolimus]
[1]; 1 nM
  cell viability: 47.2%
[1]; 10 nM
  cell viability: 40.6%
[1]; 100 nM
  cell viability: 42.5%
[1]; 1000 nM
  cell viability: 78.8%
[1]; 10000 nM
  cell viability: 4.58%
[2]; 1 nM
  cell viability: 94.5%
[2]; 10 nM
  cell viability: 81.9%
[2]; 100 nM
  cell viability: 79.7%
[2]; 1000 nM
  cell viability: 88.4%
[2]; 10000 nM
  cell viability: 74.4%
[3]; 1 nM
  cell viability: 95.8%
[3]; 10 nM
  cell viability: 98.4%
[3]; 100 nM
  cell viability: 93.6%
[3]; 1000 nM
  cell viability: 90.6%
[3]; 10000 nM
  cell viability: 96.4%
[4]; 1 nM
  cell viability: 74.5%
[4]; 10 nM
  cell viability: 65.6%
[4]; 100 nM
  cell viability: 61.8%
[4]; 1000 nM
  cell viability: 92%
[4]; 10000 nM
  cell viability: 55.3%
[5]; 1 nM
  cell viability: 73.7%
[5]; 10 nM
  cell viability: 58.7%
[5]; 100 nM
  cell viability: 48.6%
[5]; 1000 nM
  cell viability: 71.6%
[5]; 10000 nM
  cell viability: 5.69%
[6]; 1 nM
  cell viability: 97.6%
[6]; 10 nM
  cell viability: 86.7%
[6]; 100 nM
  cell viability: 77.1%
[6]; 1000 nM
  cell viability: 95.1%
[6]; 10000 nM
  cell viability: < 0%
[7]; 1 nM
  cell viability: 75.1%
[7]; 10 nM
  cell viability: 50.9%
[7]; 100 nM
  cell viability: 53.1%
[7]; 1000 nM
  cell viability: 59%
[7]; 10000 nM
  cell viability: 24.4%
[8]; 1 nM
  cell viability: 46.4%
[8]; 10 nM
  cell viability: 11.5%
[8]; 100 nM
  cell viability: 3.45%
[8]; 1000 nM
  cell viability: 58.7%
[8]; 10000 nM
  cell viability: 0.265%
[9]; 1 nM
  cell viability: 99.3%
[9]; 10 nM
  cell viability: 88.2%
[9]; 100 nM
  cell viability: 77.1%
[9]; 1000 nM
  cell viability: 96.8%
[9]; 10000 nM
  cell viability: 55.5%
[10]; 1 nM
  cell viability: 83.3%
[10]; 10 nM
  cell viability: 55.6%
[10]; 100 nM
  cell viability: 78.2%
[10]; 1000 nM
  cell viability: 88.4%
[10]; 10000 nM
  cell viability: 55.5%
[11]; 1 nM
  cell viability: 78.2%
[11]; 10 nM
  cell viability: 48.1%
[11]; 100 nM
  cell viability: 25.1%
[11]; 1000 nM
  cell viability: 49.6%
[11]; 10000 nM
  cell viability: < 0%

## CN1CCN(CCCN2c3ccccc3Sc3ccc(C(F)(F)F)cc32)CC1 [Trifluoperazine]
[1]; 1 nM
  cell viability: 55.5%
[1]; 10 nM
  cell viability: 91.7%
[1]; 100 nM
  cell viability: 70.3%
[1]; 1000 nM
  cell viability: 13.3%
[1]; 10000 nM
  cell viability: 9.9%
[2]; 1 nM
  cell viability: > 100%
[2]; 10 nM
  cell viability: 100%
[2]; 100 nM
  cell viability: 99.9%
[2]; 1000 nM
  cell viability: 77.4%
[2]; 10000 nM
  cell viability: 12%
[3]; 1 nM
  cell viability: 95.7%
[3]; 10 nM
  cell viability: 89.5%
[3]; 100 nM
  cell viability: 95.9%
[3]; 1000 nM
  cell viability: 87%
[3]; 10000 nM
  cell viability: 38.3%
[4]; 1 nM
  cell viability: 90.5%
[4]; 10 nM
  cell viability: 90.8%
[4]; 100 nM
  cell viability: 99.3%
[4]; 1000 nM
  cell viability: 56.4%
[4]; 10000 nM
  cell viability: 39.1%
[5]; 1 nM
  cell viability: 89.2%
[5]; 10 nM
  cell viability: 85.5%
[5]; 100 nM
  cell viability: 86.6%
[5]; 1000 nM
  cell viability: 26.5%
[5]; 10000 nM
  cell viability: 1.65%
[6]; 1 nM
  cell viability: 99.7%
[6]; 10 nM
  cell viability: 80.7%
[6]; 100 nM
  cell viability: 65.1%
[6]; 1000 nM
  cell viability: 11.8%
[6]; 10000 nM
  cell viability: 0.738%
[7]; 1 nM
  cell viability: 84.5%
[7]; 10 nM
  cell viability: 98.7%
[7]; 100 nM
  cell viability: 97.6%
[7]; 1000 nM
  cell viability: 75.1%
[7]; 10000 nM
  cell viability: 15.8%
[8]; 1 nM
  cell viability: 99.9%
[8]; 10 nM
  cell viability: 49.2%
[8]; 100 nM
  cell viability: 88%
[8]; 1000 nM
  cell viability: 0.912%
[8]; 10000 nM
  cell viability: 3.33%
[9]; 1 nM
  cell viability: 98.8%
[9]; 10 nM
  cell viability: 94.2%
[9]; 100 nM
  cell viability: 97.8%
[9]; 1000 nM
  cell viability: 63.5%
[9]; 10000 nM
  cell viability: 23.8%
[10]; 1 nM
  cell viability: 80%
[10]; 10 nM
  cell viability: 88.9%
[10]; 100 nM
  cell viability: 91.3%
[10]; 1000 nM
  cell viability: 69.8%
[10]; 10000 nM
  cell viability: 41.6%
[11]; 1 nM
  cell viability: 79.5%
[11]; 10 nM
  cell viability: 52.7%
[11]; 100 nM
  cell viability: 65.3%
[11]; 1000 nM
  cell viability: 0.773%
[11]; 10000 nM
  cell viability: 1.6%
